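Five compound concentrations were applied to cells in 96-well plates for 48 hours; endpoints were derived by simple linear interpolation of the resulting dose-response curve. TGI marks complete inhibition of growth.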
Experiments:
Experiment in all cases: inhibition of tumour cell growth, NCI panel, 48 h
LOX IMVI melanoma = tested on: LOX IMVI melanoma
HT29 colon = tested on: HT29 colon
UO-31 renal = tested on: UO-31 renal
UACC-62 melanoma = tested on: UACC-62 melanoma
K-562 leukemia = tested on: K-562 leukemia
SK-OV-3 ovarian = tested on: SK-OV-3 ovarian
A549 NSCLC = tested on: A549 NSCLC
BT-549 breast = tested on: BT-549 breast
SN12C renal = tested on: SN12C renal
NCI-H522 lung = tested on: NCI-H522 lung
NCI-H23 lung = tested on: NCI-H23 lung
HCC-2998 colon = tested on: HCC-2998 colon
OVCAR-5 ovarian = tested on: OVCAR-5 ovarian
MDA-N = tested on: MDA-N
MDA-MB-435 = tested on: MDA-MB-435
SW-620 colon = tested on: SW-620 colon
DU-145 prostate = tested on: DU-145 prostate
IGROV1 ovarian = tested on: IGROV1 ovarian
MDA-MB-231 breast = tested on: MDA-MB-231 breast
U251 CNS = tested on: U251 CNS
SF-295 CNS = tested on: SF-295 CNS
EKVX NSCLC = tested on: EKVX NSCLC
OVCAR-8 ovarian = tested on: OVCAR-8 ovarian
MCF7 breast = tested on: MCF7 breast
MALME-3M melanoma = tested on: MALME-3M melanoma
SK-MEL-28 melanoma = tested on: SK-MEL-28 melanoma
CCRF-CEM leukemia = tested on: CCRF-CEM leukemia
MOLT-4 leukemia = tested on: MOLT-4 leukemia
TK-10 renal = tested on: TK-10 renal
SNB-19 CNS = tested on: SNB-19 CNS
ACHN renal = tested on: ACHN renal
HOP-62 NSCLC = tested on: HOP-62 NSCLC
HCT-116 colon = tested on: HCT-116 colon
T-47D breast = tested on: T-47D breast
UACC-257 melanoma = tested on: UACC-257 melanoma
CAKI-1 renal = tested on: CAKI-1 renal
OVCAR-3 ovarian = tested on: OVCAR-3 ovarian
SK-MEL-5 melanoma = tested on: SK-MEL-5 melanoma
SR leukemia = tested on: SR leukemia
OVCAR-4 ovarian = tested on: OVCAR-4 ovarian
HL-60(TB) leukemia = tested on: HL-60(TB) leukemia
COLO 205 colon = tested on: COLO 205 colon
RXF 393 renal = tested on: RXF 393 renal
HOP-92 NSCLC = tested on: HOP-92 NSCLC
KM12 colon = tested on: KM12 colon
PC-3 prostate = tested on: PC-3 prostate
786-0 renal = tested on: 786-0 renal
HS 578T breast = tested on: HS 578T breast
NCI-H226 lung = tested on: NCI-H226 lung
SF-268 CNS = tested on: SF-268 CNS
HCT-15 colon = tested on: HCT-15 colon
M14 melanoma = tested on: M14 melanoma
A498 renal = tested on: A498 renal
NCI-H460 lung = tested on: NCI-H460 lung
NCI/ADR-RES ovarian = tested on: NCI/ADR-RES ovarian
RPMI-8226 leukemia = tested on: RPMI-8226 leukemia
SF-539 CNS = tested on: SF-539 CNS
SK-MEL-2 melanoma = tested on: SK-MEL-2 melanoma
SNB-75 CNS = tested on: SNB-75 CNS

CC[C@@H](C)[C@H](NC(=O)[C@H](Cc1ccccc1)NCC(F)(F)F)C(=O)OC(C)(C)C
TGI (LOX IMVI melanoma): > 100 µM | TGI (HT29 colon): > 100 µM | TGI (UO-31 renal): > 100 µM | TGI (UACC-62 melanoma): > 100 µM | TGI (K-562 leukemia): > 100 µM | TGI (SK-OV-3 ovarian): > 100 µM | TGI (A549 NSCLC): > 100 µM | TGI (BT-549 breast): > 100 µM | TGI (SN12C renal): > 100 µM | TGI (NCI-H522 lung): > 100 µM | TGI (NCI-H23 lung): > 100 µM | TGI (HCC-2998 colon): > 100 µM | TGI (OVCAR-5 ovarian): > 100 µM | TGI (MDA-N): > 100 µM | TGI (MDA-MB-435): > 100 µM | TGI (SW-620 colon): > 100 µM | TGI (DU-145 prostate): > 100 µM | TGI (IGROV1 ovarian): > 100 µM | TGI (MDA-MB-231 breast): > 100 µM | TGI (U251 CNS): > 100 µM | TGI (SF-295 CNS): > 100 µM | TGI (EKVX NSCLC): > 100 µM | TGI (OVCAR-8 ovarian): > 100 µM | TGI (MCF7 breast): > 100 µM | TGI (MALME-3M melanoma): > 100 µM | TGI (SK-MEL-28 melanoma): > 100 µM | TGI (CCRF-CEM leukemia): > 100 µM | TGI (MOLT-4 leukemia): > 100 µM | TGI (TK-10 renal): > 100 µM | TGI (SNB-19 CNS): > 100 µM | TGI (ACHN renal): > 100 µM | TGI (HOP-62 NSCLC): > 100 µM | TGI (HCT-116 colon): > 100 µM | TGI (T-47D breast): > 100 µM | TGI (UACC-257 melanoma): > 100 µM | TGI (CAKI-1 renal): > 100 µM | TGI (OVCAR-3 ovarian): > 100 µM | TGI (SK-MEL-5 melanoma): > 100 µM | TGI (SR leukemia): > 100 µM | TGI (OVCAR-4 ovarian): > 100 µM | TGI (HL-60(TB) leukemia): > 100 µM | TGI (COLO 205 colon): > 100 µM | TGI (RXF 393 renal): > 100 µM | TGI (HOP-92 NSCLC): > 100 µM | TGI (KM12 colon): > 100 µM | TGI (PC-3 prostate): > 100 µM | TGI (786-0 renal): > 100 µM | TGI (HS 578T breast): > 100 µM | TGI (NCI-H226 lung): > 100 µM | TGI (SF-268 CNS): > 100 µM | TGI (HCT-15 colon): > 100 µM | TGI (M14 melanoma): > 100 µM | TGI (A498 renal): > 100 µM | TGI (NCI-H460 lung): > 100 µM | TGI (NCI/ADR-RES ovarian): > 100 µM

O=c1oc2ccccc2c(Nc2ccc3c(c2)Sc2ccccc2O3)c1[N+](=O)[O-]
TGI (LOX IMVI melanoma): > 100 µM | TGI (HT29 colon): 65.9 µM | TGI (UO-31 renal): > 100 µM | TGI (UACC-62 melanoma): > 100 µM | TGI (K-562 leukemia): 57.9 µM | TGI (SK-OV-3 ovarian): > 100 µM | TGI (A549 NSCLC): > 100 µM | TGI (BT-549 breast): 85.4 µM | TGI (SN12C renal): > 100 µM | TGI (NCI-H522 lung): 48 µM | TGI (NCI-H23 lung): 86.7 µM | TGI (HCC-2998 colon): 39.9 µM | TGI (OVCAR-5 ovarian): > 100 µM | TGI (MDA-N): > 100 µM | TGI (MDA-MB-435): > 100 µM | TGI (DU-145 prostate): > 100 µM | TGI (IGROV1 ovarian): > 100 µM | TGI (MDA-MB-231 breast): 47.9 µM | TGI (U251 CNS): 41.7 µM | TGI (SF-295 CNS): 60.6 µM | TGI (EKVX NSCLC): 90.6 µM | TGI (OVCAR-8 ovarian): > 100 µM | TGI (RPMI-8226 leukemia): 37.8 µM | TGI (MCF7 breast): 43 µM | TGI (MALME-3M melanoma): 65.7 µM | TGI (SK-MEL-28 melanoma): 73.3 µM | TGI (CCRF-CEM leukemia): 81 µM | TGI (TK-10 renal): 53.9 µM | TGI (SNB-19 CNS): > 100 µM | TGI (ACHN renal): 44.7 µM | TGI (HOP-62 NSCLC): > 100 µM | TGI (HCT-116 colon): > 100 µM | TGI (T-47D breast): 69.7 µM | TGI (UACC-257 melanoma): 55.7 µM | TGI (CAKI-1 renal): > 100 µM | TGI (OVCAR-3 ovarian): 47.5 µM | TGI (SK-MEL-5 melanoma): 32.4 µM | TGI (SR leukemia): 57.3 µM | TGI (OVCAR-4 ovarian): > 100 µM | TGI (HL-60(TB) leukemia): 49.7 µM | TGI (COLO 205 colon): 32.1 µM | TGI (RXF 393 renal): 61.9 µM | TGI (HOP-92 NSCLC): 71.2 µM | TGI (KM12 colon): 94.3 µM | TGI (PC-3 prostate): 38.9 µM | TGI (SF-539 CNS): 85 µM | TGI (SK-MEL-2 melanoma): 54.7 µM | TGI (786-0 renal): 53.1 µM | TGI (HS 578T breast): > 100 µM | TGI (NCI-H226 lung): 76.5 µM | TGI (SF-268 CNS): > 100 µM | TGI (HCT-15 colon): > 100 µM | TGI (M14 melanoma): > 100 µM | TGI (NCI-H460 lung): 55.3 µM | TGI (NCI/ADR-RES ovarian): > 100 µM | TGI (SNB-75 CNS): 58.3 µM

From PubChem BioAssay (NCI)
